Residues, ends and D or L forms follow the SMILES beside them.

For assay [1], the target named is T1, PD-1 (Homo sapiens, UniProt Q15116).
T1 construct: comprise the extracellular 37-162, 19-152, 21-141, 24-167 and 20-239 amino acid, respectively, of the mature human ligands domain; purchased R&D Systems; host or cells: mouse myeloma NS0 cells
Format: binding.

Assay [2] relates to IL2 and IFN-γ mRNA induced by SEB in human PBMC. The class given is cell-based.

T1 sequence (Q15116 24-167): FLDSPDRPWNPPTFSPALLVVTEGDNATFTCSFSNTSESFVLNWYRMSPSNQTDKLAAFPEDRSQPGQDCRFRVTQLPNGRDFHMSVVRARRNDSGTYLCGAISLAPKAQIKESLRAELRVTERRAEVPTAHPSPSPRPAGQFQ

With `CC(C)C[C@H](NC(=O)[C@H](CCC(=O)O)NC(=O)[C@H](CCC(N)=O)NC(=O)[C@@H](NC(=O)[C@@H](NC(=O)[C@H](C)NC(=O)[C@H](CCCCN)NC(=O)[C@H](CCCCN)NC(=O)[C@H](CCCCN)NC(=O)[C@H](CC(N)=O)NC(=O)[C@H](Cc1ccc(O)cc1)NC(=O)[C@@H](N)CS)[C@@H](C)O)C(C)C)C(=O)N[C@@H](CC(=O)O)C(=O)N[C@@H](CS)C(=O)O` [p12C] (H-CYNKKKATVQELDC-OH), the “binding of PD-1 to immobilized peptide” value in assay [1] was “failed to bind significantly”. Also, the “antagonism of SEB-mediated induction of IL2 and IFN-γ mRNA” value in assay [2] is recorded as “as active as p14A”.

The record behind these values is US8535672B2, “Broad-spectrum in-vivo effective superantigen toxin antagonists based on the interaction between CD28 and the superantigen and uses thereof” (Yissum Research Development of the Hebrew University of …, priority 2003, dated 2013).
